# Results published in publication PMC7791840, “The R-enantiomer of ketorolac reduces ovarian cancer tumor burden in vivo” (BMC Cancer, 2021).
# What was measured:
# [1] = Toxicity assessment, blood chemistry after chronic treatment; format: in vivo; details: tumor-bearing mice, 5 mg/kg/d, 25 days, Average ± SD
# Description: For toxicity assessment studies at an increased R-ketorolac dose of 5 mg/kg/d, athymic nude female mice were purchased from Charles River Laboratory (Wilmington, MA, strain code 490). Mice were injected i.p. with 1 × 10^6 SKOV3ip-RLuc-GFP cells suspended in sterile saline. Xenografts were established until tumors reached a bioluminescence imaging (BLI) value of ~ 3 × 10^8 radiance (IVIS SpectrumCT, PerkinElmer, Waltham MA). Mice were conditioned to placebo pills once a day for no less than 3 days during xenograft growth, then randomized to receive placebo or 5 mg/kg/d R-ketorolac for 25 days. Blood was collected via cardiac puncture and 0.2–0.4 mL was added to Lithium Heparin tubes (BD Microtainer, Ref #365965). Samples were mixed thoroughly immediately after filling the tube by gently inverting the tube by hand. Samples were kept and analyzed at room temperature within 60 min of collection. For each sample analysis 100 μl of blood was added to Abaxis Comprehensive Diagnostic Profile cassette (Abaxis, Inc. Union City, CA Ref. # 500–0038-24) and values obtained using Abaxis VetScan2 analyzer.
# [2] = Ketorolac enantiomers in mouse blood/serum by HPLC after two-week treatment; format: in vivo, mice
# Excerpt: For two-week tumor studies, 1 × 10^6 non-treated SKOV3ip-GFP cells were i.p. injected. All mice started R-ketorolac treatment one day prior to cell injection and continued treatment until conclusion of the study 14 days later. Mice were imaged using a Light Tools imaging system (Synopsys Optical Solutions, Westminster CO) with long pass GFP filters. Three images per mouse were captured to ensure all tumors were counted. Green fluorescent tumors were identified and counted in the peritoneal cavity as single tumors if there was a distinct border of non-fluorescent tissue. […] Blood was collected via cardiac puncture and ketorolac enantiomer concentrations were measured by HPLC analysis as described in Supplemental Methods (Additional File 1: Supplemental Methods). […]
# SKOV3ip cells were modified to express GFP-Rac1 by transfection with pcDNA3-EGFP-Rac1-wt (Catalog # 12980, Addgene) as described for SKOV3ip-GFP cells under Methods. Rac1 overexpression quantification and verification was completed by western blot and qPCR. […]
# Omental tissue was harvested and stored on ice in PBS for no more than 1 hour before analysis. Omenta were blotted dry on lab tissue and weight was measured using an analytical balance (Denver Instruments Company, A -160). […]
# Samples were then centrifuged at 4000x g for 10 minutes at 4°C. […] Ketorolac was detected using a UV spectrometer set at UV310. […]
# [3] = test system: Rac1; design: method as in earlier work; details: cell-based assays, ovarian tumor cells; ref 23 (R-ketorolac), 27 (S-ketorolac); cited from earlier work
# [4] = test system: COX-1; design: method as in PMID 26558612, PMID 10027870; details: cited from earlier work
# [5] = test system: ovarian tumor cell; design: method as in PMID 26071482, PMID 26558612, PMID 26206334; details: cited from earlier work
# [6] = ROS model for points below limit of detection
smiles,measurement,setting,value
O=C(c1ccccc1)c1ccc2n1CC[C@H]2C(=O)O [R-ketorolac],Alanine aminotransferase,[1],32.30 ± 11.35 U/L
same,Albumin,[1],4.05 ± 0.40 g/dL
same,Amylase,[1],1069 ± 264 U/L
same,Blood Urea Nitrogen,[1],16.4 ± 2.59 mg/dL
same,Calcium,[1],11.58 ± 0.79 mg/dL
same,Globulin,[1],1.77 ± 0.43 g/dL
same,Glucose,[1],287.7 ± 81.31 mg/dL
same,Mouse Weight,[1],23.67 ± 1.30 g
same,Phosphorus,[1],9.86 ± 1.90 mg/dL
same,Sodium,[1],151.3 ± 4.11 mmol/L
same,Total Bilirubin,[1],0.26 ± 0.05 mg/dL
same,Total Protein,[1],5.79 ± 0.34 g/dL
same,Alkaline phosphatase,[1]; [6],28.97 ± 18.75 U/L
same,Creatinin,[1]; [6],0.24 ± 0.13 mg/dL
same,Accumulation with repeated dosing,"[2]; mice, daily dosing 14 days",does not appear to accumulate with repeated dosing
same,concentration at 14 day,"[2]; mouse, serum, at conclusion of chronic administration (14 day) tumor study, 1 mg/kg twice daily oral, read-out: Steady state blood concentration of R-ketorolac",~1400 ng/mL
same,IC50,[3],570 nM
same,IC50,[4],> 100000 nM
same,"Ovarian tumor cell adhesion, migration and invadopodia formation",[5],"inhibited ovarian tumor cell adhesion, migration and invadopodia formation"
same,Cytotoxicity,[5]; ovarian tumor cells,without cytotoxicity
